In PubChem BioAssay (NCI):
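All cell lines were grown in 96-well plates and treated with compound for 48 hours. GI50 is the concentration that inhibits growth by half. TGI marks complete inhibition of growth.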

Key:
Experiment in all cases: growth of human tumour cells (NCI), 48 h
[1] = tested on: HOP-92 NSCLC
[2] = tested on: OVCAR-3 ovarian
[3] = tested on: SN12C renal
[4] = tested on: SNB-75 CNS
[5] = tested on: SW-620 colon
[6] = tested on: U251 CNS
[7] = tested on: COLO 205 colon
[8] = tested on: HCC-2998 colon
[9] = tested on: M14 melanoma
[10] = tested on: SK-MEL-28 melanoma

Structure (SMILES) | GI50 [1] | TGI [1] | GI50 [2] | TGI [2] | GI50 [3] | TGI [3] | GI50 [4] | TGI [4] | GI50 [5] | TGI [5] | GI50 [6] | TGI [6] | GI50 [7] | TGI [7] | GI50 [8] | TGI [8] | GI50 [9] | TGI [9] | GI50 [10] | TGI [10]
COc1cc2ncnc(Nc3ccc(Oc4ccnc(C)c4)c(C)c3)c2cc1NC(=O)CC1CCSS1 (centres undefined) | 3.75 µM | 23.1 µM | 0.853 µM | 1.6 µM | 1.5 µM | > 50 µM | 1.41 µM | > 25.2 µM | 1.14 µM | 2.71 µM | 1.15 µM | 2.81 µM |  |  |  |  |  |  |  | 
CCC(C)C1=C(O)[N+]2([O-])Oc3ccc(C4=C(O)C(=O)C(c5ccc(O)cc5)=C(O)C4=O)cc3OC2(C(C)CC)C(=O)N1O (centres undefined) | 9.29 µM | > 100 µM | 5.39 µM | 49.1 µM |  |  | > 100 µM | > 100 µM | 25.4 µM | > 100 µM | 6.25 µM | > 100 µM | 12.6 µM | > 100 µM | 6.78 µM | 57.2 µM | 2.75 µM | 11.5 µM | 85.7 µM | > 100 µM
CCCCCCCCCCCCN=C(N)c1ccc(N2CCN(c3ccc(C(N)=NCCCCCCCCCCCC)cc3)CC2)cc1 | 0.614 µM | 2.86 µM | 8.66 µM | 20.7 µM | 8.99 µM | 18.7 µM |  |  | 9.31 µM | 28.1 µM | 11.3 µM | 24.9 µM | 11.6 µM | 24.4 µM | 8.67 µM | 17 µM | 7.82 µM | 16.4 µM | 13.3 µM | 26.9 µM
CCOC(=O)c1c(C)nc2c(c1N)/C(=C/c1ccccn1)C(=O)N2Cc1ccccc1 | 0.903 µM | 1.86 µM | 0.9 µM | 1.71 µM | 1.15 µM | 3.09 µM |  |  | 1 µM | 2.31 µM | 0.948 µM | 1.72 µM | 1.06 µM | 2.38 µM | 0.895 µM | 1.77 µM | 1.03 µM | 2.39 µM | 1.16 µM | 3.21 µM
Oc1ccc(C(O)(c2ccccc2)c2ccccc2)c2ccccc12 |  | 5.22 µM |  | 3.93 µM |  | 6.87 µM |  | 18.2 µM |  | 9.64 µM |  | 2.91 µM |  | 18.6 µM |  |  |  | 10.7 µM |  | 29.9 µM
CCCCCCCCCCCCCCCC(=O)OCCOCCOCCOCCOCCOC(=O)CCCCCCCCCCCCCCC |  | > 100 µM |  | > 100 µM |  | > 100 µM |  |  |  | > 100 µM |  | > 100 µM |  | > 100 µM |  | > 100 µM |  | > 100 µM |  | > 100 µM
NC(Cc1c[nH]c2ccc([N+](=O)[O-])cc12)C(=O)O (centres undefined) |  |  |  | > 100 µM |  | > 100 µM |  | > 100 µM |  | > 100 µM |  | > 100 µM |  | > 100 µM |  |  |  | > 100 µM |  | > 100 µM
Cc1ccc(-c2nc(-c3nccc4ccccc34)oc2-c2ccccc2)cc1 |  | > 100 µM |  | > 100 µM |  | 62.7 µM |  | 92.7 µM |  | > 100 µM |  | > 100 µM |  | > 100 µM |  |  |  | > 100 µM |  | > 100 µM
CCCCNC(=S)OCCC(C)CCCC(C)C (centres undefined) |  |  |  |  |  | > 100 µM |  | > 100 µM |  | > 100 µM |  | > 100 µM |  |  |  | > 100 µM |  | > 100 µM |  | > 100 µM
COC1C=COC2(C)Oc3c(C)c(O)c4c(O)c(c(C5SCCS5)c(O)c4c3C2=O)NC(=O)/C(C)=C\C=CC(C)C(O)C(C)C(O)C(C)C(OC(C)=O)C1C (centres undefined) |  | 26.1 µM |  | 20.4 µM |  | 10.1 µM |  | 20.5 µM |  | 20.1 µM |  | 14.5 µM |  | 6.79 µM |  |  |  | 27.5 µM |  | 20.8 µM
COc1cc2c3c(n(CCCNCCCNCCN)c(=O)c2cc1OC)-c1cc2c(cc1C3=O)OCO2 | 39.7 µM | > 100 µM | 19.5 µM | 53.5 µM | 19.8 µM | 64.3 µM | 28.9 µM | 94.6 µM | 30.8 µM | > 100 µM | 18 µM | 44.2 µM | 23.8 µM | > 100 µM |  |  | 53.9 µM | > 100 µM | 48.5 µM | > 100 µM
N#CC1(C#N)C=CC(=C2OCC3CCCN23)C=C1 (centres undefined) |  | > 100 µM |  |  |  | > 100 µM |  | > 100 µM |  | > 100 µM |  | > 100 µM |  | > 100 µM |  | > 100 µM |  | > 100 µM |  | 
N#Cc1nc(C#N)c(Sc2ccccc2)c(Sc2ccccc2)c1Sc1ccccc1 | 2.52 µM | 20.9 µM | 1.45 µM | 2.89 µM | 0.191 µM | 0.378 µM | 2.42 µM | > 29.3 µM | 0.232 µM | 0.5 µM | 0.51 µM | 1.86 µM | 0.719 µM | 2.03 µM | 2.24 µM | 4.66 µM |  |  | 1.48 µM | 2.89 µM
O=C(Nc1ccccc1)OC1OC(COC(=O)c2ccccc2)C(OC(=O)c2ccccc2)C1OS(=O)(=O)c1ccc([N+](=O)[O-])cc1 (centres undefined) |  | > 100 µM |  | > 100 µM |  | > 100 µM |  |  |  | > 100 µM |  | > 100 µM |  | > 100 µM |  | > 100 µM |  | > 100 µM |  | > 100 µM
CCOC(=O)c1[nH]c2cc(OC)c(OC)cc2c1CN(C)C |  | > 100 µM |  |  |  | > 100 µM |  | > 100 µM |  | > 100 µM |  | > 100 µM |  |  |  | > 100 µM |  | > 100 µM |  | > 100 µM
COc1ccc(/C=C/C(=O)c2c(-c3ccccc3)nn(C)c(=O)c2N2CCOCC2)cc1 |  | > 100 µM |  |  |  | > 100 µM |  |  |  | > 100 µM |  | > 100 µM |  | > 100 µM |  |  |  | > 100 µM |  | > 100 µM
Nc1nc2c(-c3ccc([N+](=O)[O-])cc3)nnn2c2ccccc12 |  | > 100 µM |  | 95.3 µM |  | > 100 µM |  |  |  | > 100 µM |  | 66.4 µM |  | > 100 µM |  | > 100 µM |  | > 100 µM |  | > 100 µM
NCCCNc1nc2ccccc2c2c(=O)c3cccc(Cl)c3sc12 | 1.19 µM | 2.63 µM |  |  | 1.52 µM | 3.05 µM | 1.34 µM | 2.69 µM |  |  |  |  |  |  | 1.48 µM | 2.98 µM | 1.61 µM | 3.06 µM | 1.81 µM | 3.29 µM
COCCc1n(Cc2ccc3ccccc3c2)c2ccccc2[n+]1Cc1ccc2ccccc2c1 | 0.214 µM | 1.13 µM | 0.451 µM | 1.72 µM |  |  |  |  | 1.11 µM | 2.59 µM |  |  |  |  |  |  |  |  | 0.567 µM | 1.97 µM
